This note sets out measurements from patent US5240912A, “Transforming growth factor (TGF) peptides” (priority 1991, dated 1993).

Assay [1] has as its system antiserum directed against peptide III. Description: Competitive radioimmunoassay with 125I-peptide III. In kind it is binding, rabbit. Particulars: for Relative Inhibitory Activity: half-maximal inhibitory concentration relative to peptide III, standard RIA; for effectiveness as inhibitor of precipitation of 125I-peptide III: relative to peptide III. The protocol:
Reactants were mixed in a final volume of 50 microliters of a solution containing: 20 mM sodium phosphate, at pH 7.4; 200 mM NaCl; 40 mM dithiothreitol; 0.1% (w:v) BSA; 0.1% (w:v) NaN3; ^125 I-peptide III; (10^4 cpm); antiserum at a final dilution of 1/15,000; and other additions, as specified. The reaction was initiated by the addition of antiserum and continued at 23° C. for 90 minutes. An equal volume of 10% formalin-fixed Staphalococcus A (Pansorbin, Calbiochem) was then added and incubation was continued for an additional 30 minutes at 23° C. The immunoadsorbant was removed by sedimentation through a cushion of 10% (w:v) sucrose and the amount of bound ^125 I-peptide III was determined using a gamma counter.

Assay [2] addresses T1, EGF receptors on A-431 human epidermoid carcinoma cells (Homo sapiens, UniProt P00533).
T1 construct: Human epidermoid carcinoma A431 cells have in excess of 10^6 EGF receptors per cell; endogenous in cells; host or cells: A431 human epidermoid carcinoma cells
Description: [125I]EGF radioreceptor assay on A-431 cells. The format is binding. The protocol: A-431 human epidermoid carcinoma cells or human foreskin fibroblasts (HFF), established from primary cultures, were grown to confluence in 24-well cluster dishes (Costar) in Dulbecco's minimal essential medium (DMEM, Gibco) containing 10% fetal calf serum (FCS, Hyclone). EGF was radio-iodinated as above to between 4×10^4 and 8×10^4 cpm/ng protein. Cells were incubated at 4° C. for 60 minutes with 1 nM [^125 I]EGF in the presence of inhibitor peptides in DMEM (pH 7.4; 20 mM Hepes) containing 0.1% BSA. Cells were washed 3× with cold buffer, lysed with 0.1N NaOH, and cell-associated radioactivity was measured (γ-counter). Nonspecific binding assessed in the presence of a 100x excess of cold EGF was less than 5% and 10% of the specific binding for A-431 and HFF cells, respectively.

A further assay deals with quiescent HFF. The assay can be described thus: Cell proliferation assay, [3H]methyl-thymidine incorporation. In kind it is cell-based, human. The protocol: HFF cells were grown to confluence in 48-well cluster dishes in DMEM-10% FCS and brought to quiescence by starvation for 2 days in DMEM-0.5% FCS. Mitogens and peptides were incubated with cells at 37° C. for 18 hours prior to a 4 hour pulse with 1 μCi [^3 H]methyl-thymidine (NEN) and trichloroacetic acid precipitable radioactivity was determined.
For orientation: Dividing cells build labelled thymidine or BrdU into new DNA.

Another assay relates to anti-KLH-peptide 1 IgG. The assay can be described thus: Solid phase RIA, anti-KLH-peptide 1 IgG on BSA-peptide 1 conjugate. The format is binding, rabbit. The procedure:
(1979) J. Immunol. Methods 28, pp. 201-206). Carrier-peptide complexes were purified by gel filtration. […] Rabbits were boosted s.c. every two weeks with the immunogen in incomplete Freund's adjuvant. The IgG fraction of the antiserum after 5 boosts was used for immunoassays and radiolabeled using Na^125 I (NEN) and Enzymobeads (Bio-Rad) to 4×10^5 cpm/μg protein. […] Plates were incubated for 4 hours at 37° C. with [^125 I]anti-KLH-peptide 1 IgG (50,000 cpm/well) in the presence or absence of inhibitors, washed and individual wells were counted.

Assay [3] concerns BSC-1 cells infected with vaccinia virus. The format is cell-based, Cercopithecus monkey. The note with it: AraC from after the 1 hr adsorption period; 13 and 24 hr post infection.
The target in assay [4] is T2, EGF receptors on A431 cells (Homo sapiens, UniProt P00533).
T2 construct: Human epidermoid carcinoma A431 cells have in excess of 10^6 EGF receptors per cell; endogenous in cells; host or cells: A431 human epidermoid carcinoma cells
The assay can be described thus: Binding of 125I-labeled rat TGF to A431 cells. The protocol: was synthesized using the solid-phase technique of Ohgak et al. (1983) Journal of Immunol. Meth. 57, pp. 171-184. This oligopeptide was then coupled to keyhole limpet hemocyanin in accordance with the procedure of Baron et al. (1982) Cell 28, pp. 395-404, and used to immunize rabbits (Baron et al. (1982) Cell 28, pp. 395-404) and sheep (Lerner (1982) Nature 299, pp. 592-596). Antisera were assayed against peptide by a peroxidase-linked immunoassay (Kirkegaard and Perry Laboratories, Gaithersberg, Md.) and against homogeneous rat TGF (purified according to Example II above), by immunoprecipitation (Bister et al. (1980) J. Virol. 36, pp. 617-621) and Western blotting techniques (Burnett (1981) Analyt. Biochem. 112, pp. 195-203). Binding of ^125 I-labeled rat TGF and mouse EGF (Bethesda Research Labs, Bethesda, Md.) to A431 cells grown in 96-well microtiter plates was as described in Pross et al. (1977) Proc. Natl. Acad. Sci. USA 74, pp. 3918-3921.
Human epidermoid carcinoma A431 cells have in excess of 10^6 EGF receptors per cell (Fabricant et al. (1977) Proc. Natl. Acad. Sci. USA 74, pp. 565-569). TGF competes with EGF for binding to these receptors. Binding of ^125 I-labeled rat TGF to these cells was blocked by an excess of unlabeled EGF and by antiserum to peptide. […]

Read-outs that look alike come from different tables or passages of the source. Positions of bridges follow the written chain, without caps; N, C: chain ends. Residues, ends and D or L forms follow the SMILES beside them. No end group written: not given here. Where only a bound is given, the exact number is not on record here.

As to “CHSGYVGVRCEHADLLA (cysteine pairing not given here) [Peptide III]”, in assay [1], the “Relative Inhibitory Activity” value worked out at 1. For the same molecule, the IC50 in assay [1] (read-out: concentration producing half-maximal inhibition of precipitation of 125I-peptide III) was found to be 0.0007 µM.

As for “CHSGYVGVRC (cysteine pairing not given here) [Peptide II]”, the “Relative Inhibitory Activity” value in assay [1] was more than 1500.

For the molecule “Ac-Cys-His-Ser-Gly-Tyr-Val-Gly-Ala-Arg-Cys-OMe (Ac-CHSGYVGARC-OMe; disulfide 1-10 (inferred)) [Peptide 3, methyl ester of the corresponding loop of hTGF]”, the “binding potency relative to EGF or TGF-α” value in assay [2] is given as approximately 0.2%.

Take `CC(=O)N[C@H]1CSSC[C@@H](C(N)=O)NC(=O)[C@H](CCCNC(=N)N)NC(=O)[C@H](C(C)C)NC(=O)CNC(=O)[C@H](C(C)C)NC(=O)[C@H](Cc2ccc(O)cc2)NC(=O)CNC(=O)[C@H](CO)NC(=O)[C@H](Cc2c[nH]cn2)NC1=O` [Peptide 2] (Ac-CHSGYVGVRC-NH2; disulfide 1-10): the “binding potency relative to EGF or TGF-α” value in assay [2] is “approximately 0.02%”.

For VVSHFNKCPDSHT [Peptide I], in assay [1], the “Relative Inhibitory Activity” value was more than 1500 and the “effectiveness as inhibitor of precipitation of 125I-peptide III” value is “ineffective”.

For the molecule `CC(C)[C@@H]1NC(=O)CNC(=O)[C@H](C(C)C)NC(=O)[C@H](Cc2ccc(O)cc2)NC(=O)CNC(=O)[C@H](CO)NC(=O)[C@H](Cc2c[nH]cn2)NC(=O)[C@@H](N)CSSC[C@@H](C(=O)O)NC(=O)[C@H](CCCNC(=N)N)NC1=O` [Peptide 1] (H-CHSGYVGVRC-OH; disulfide 1-10), the “concentration giving partial inhibition of [125I]EGF binding” value in assay [2] is on record as > 10^-6 M. Further, the IC50 in the assay on quiescent HFF (induced by 1 nM of EGF, read-out: Inhibition of Mitogenesis IC50 (M) EGF) was more than 1e-05 M; with quiescent HFF (induced by 1 nM of TGFα, read-out: Inhibition of Mitogenesis IC50 (M) TGFα) it was more than 1e-05 M. For the same molecule, the “inhibition of reaction of anti-KLH-peptide 1 antibodies with BSA-TGF peptide” value in the assay with anti-KLH-peptide 1 IgG is listed as “inhibited in a concentration-dependent fashion”.

As to `Nc1ccn([C@@H]2O[C@H](CO)[C@@H](O)[C@@H]2O)c(=O)n1` [AraC, cytosine arabinoside], the “VGF production relative to infected control cultures” value in assay [3] is recorded as “enhanced more than two-fold”.

VGVRCEHADLLA [Peptide IV]: in assay [1], the “Relative Inhibitory Activity” value was found to be 3.5 and the “effectiveness as inhibitor of precipitation of 125I-peptide III” value is given as “only slightly less effective”.

As to “EGF: mouse submaxillary gland epidermal growth factor [reference compound]”, in assay [4], the “blocking of 125I-labeled rat TGF binding to A431 cells” value was “blocked”. Also, in assay [1], the “highest concentration without competition in RIA” value is listed as “greater than 1 μM” and the “Relative Inhibitory Activity” value is on record as more than 1500. In the assay on anti-KLH-peptide 1 IgG, the “inhibition of reaction of anti-KLH-peptide 1 antibodies with BSA-TGF peptide” value was “did not cause significant inhibition”.
